Seven compounds from ChEMBL document CHEMBL5143653, “4'-Nitrobiphenyl thioglucoside as the Smallest, fluorescent photosensitizer with cancer targeting ligand” (Bioorg Med Chem, 2022) can be followed below.

In data set [1] the test system is PC-3. Put plainly: Dark toxicity in human PC-3 cells assessed as reduction in cell viability at 150 uM incubated under dark for 2 hrs by MTT assay. The data set is classed as cell-based. Particulars: pc-3, 2 h; call rule not given here.
Data set [2] can be described thus: Drug uptake in human PC-3 cells at 150 uM incubated under irradiation at 405 nm by confocal laser scan fluorescence microscopy. The data set is classed as ADME, cell-based. Conditions: pc-3, 150 µM.
Data set [3] has as its system PC-3. Nature of the data set: Dark toxicity in human PC-3 cells assessed as reduction in cell viability at 300 uM incubated under dark for 2 hrs by MTT assay. Conditions: pc-3, 2 h. The data set is classed as cell-based. In general terms: Tetrazolium assays rely on reduction of a dye to a coloured formazan, in cell work by metabolically active cells.
The nature of data set [4]: Photodynamic cytotoxicity in human PC-3 cells assessed as reduction in cell viability under 405 nm irradiation exposure measured after 2 hrs by MTT assay. Format: toxicity, cell-based.
Data set [5] in a line: Drug uptake in human PC-3 cells at 150 uM incubated under irradiation at 405 nm in presence of cytochalasin B by confocal laser scan fluorescence microscopy. Format: ADME, cell-based. Conditions: pc-3, 150 µM.
Data set [6] in a line: Drug uptake in human PC-3 cells at 150 uM incubated under irradiation at 405 nm in presence of up top 25 mM glucose by confocal laser scan fluorescence microscopy. Format: ADME, cell-based. Particulars: pc-3, 150 µM.

Each structure is given as a SMILES string.

Take `O=[N+]([O-])c1ccc(-c2ccc(SCCCO[C@@H]3O[C@H](CO)[C@@H](O)[C@H](O)[C@H]3O)cc2)cc1`: in the data set on PC-3 [1], the Activity entry is given as “Toxic”.

For `O=[N+]([O-])c1ccc(-c2ccc(O[C@@H]3O[C@H](CO)[C@@H](O)[C@H](O)[C@H]3O)cc2)cc1`, the Activity result with PC-3 [1] is given as “Non-Toxic”.

On to `O=[N+]([O-])c1ccc(-c2ccc(OCCCO[C@@H]3O[C@H](CO)[C@@H](O)[C@H](O)[C@H]3O)cc2)cc1`, for which, in the data set on PC-3 [1], the Activity entry is “Toxic”.

As for `O=[N+]([O-])c1ccc(-c2ccc(S[C@H]3O[C@H](CO)[C@@H](O)[C@H](O)[C@@H]3O)cc2)cc1`, the Drug uptake result in data set [2] was “Active”. Besides, the Activity result in the data set with PC-3 [3] is recorded as “Toxic”. Also, the concentration for half-maximal inhibition (IC50) (in general, the concentration that inhibits the measured activity by half) at 2 h in data set [4] is 150 µM.

Consider `O=[N+]([O-])c1ccc(-c2ccc(OCCCS[C@@H]3O[C@H](CO)[C@@H](O)[C@H](O)[C@H]3O)cc2)cc1`, for which, in the data set on PC-3 [1], the Activity result is recorded as “Toxic”.

Take `O=[N+]([O-])c1ccc(-c2ccc(S[C@@H]3O[C@H](CO)[C@H](O)[C@H](O)[C@H]3O)cc2)cc1`: the Drug uptake result in data set [5], in data set [6] and in data set [2] was “Active” throughout. The Activity entry in the data set with PC-3 [3] was “Toxic”. Further, the IC50 at 2 h in data set [4] was 120 µM.

As for `O=[N+]([O-])c1ccc(-c2ccc(S[C@@H]3O[C@H](CO)[C@@H](O)[C@H](O)[C@H]3O)cc2)cc1`, in data set [2], the Drug uptake entry is given as “Active”. Also, the Activity entry in the data set on PC-3 [1] and in the data set on PC-3 [3] was “Non-Toxic” in each case. Also, the IC50 at 2 h in data set [4] was 250 µM.
